# How the values were obtained:
# [1] = system: methicillin sensitive strain of Staphylococcus aureus (clinical isolate); experiment: ATP assay (ligase/quantitative PCR) of Staphylococcus aureus susceptibility to antibiotic, sensitive strain; assay type: cell-based; conditions: grown 3 hours at 37° C. with 60 μg/ml oxacillin; FIG. 7
# Experimental: (§1) • 1. A bacterial culture of a clinical isolate of a MRSA and antibiotic sensitive strain of Staphylococcus aureus strain were prepared in Nutrient media (Lab M, UK) and grown to stationary phase at 37° C. overnight. • 2. The following day, a hundred-fold dilution of the bacterial cultures were prepared in the same media with 1 μl alkaline phosphatase (10 units, New England Biolabs) with and without 60 μg/ml oxacillin and grown for 3 hours at 37° C. • 3. For the quantitation of ATP, 10 μl of each 0 (10 μl culture removed and treated at time 0 min) and 3 hour culture were added to 2.5 μl of 1M NaOH, 1% (v/v) Triton X-100 and incubated for 5 min before neutralisation with 25 μl of 0.1M HCL. 4. 100 μl of ligase buffer was then added followed by 5 μl ligase/DNA substrate paramagnetic beads (prepared as described in Example 2 above). • 5. After incubation at 8° C. for 60 min, the beads were collected using a magnet and resuspended in 20 μl ligase buffer. • 6. After heating at 95° C. for 5 min, 2 μl of the eluted ligated product was quantitated by PCR. • 7. The quantitative PCR was performed as described previously. Results
# There is growth and an increase of ATP observed after 3 hr compared to the zero time point. This growth and increase in ATP is not observed when the organism is grown in the presence of oxacillin. […]
# [2] = system: methicillin resistant strain of Staphylococcus aureus (MRSA clinical isolate); experiment: ATP assay (ligase/quantitative PCR) of Staphylococcus aureus susceptibility to antibiotic, MRSA strain; assay type: cell-based; conditions: grown 3 hours at 37° C. with 60 μg/ml oxacillin; FIG. 8
# Experimental: as §1
# There is growth and an increase of ATP observed after 3 hr in the absence of antibiotic compared to the zero time point. […] The organism is not sensitive to this antibiotic and continues to grow and produce ATP in the presence of this antibiotic.
smiles,measurement,setting,value
Cc1onc(-c2ccccc2)c1C(=O)N[C@@H]1C(=O)N2[C@@H]1SC(C)(C)[C@@H]2C(=O)O [oxacillin],growth and increase in ATP after 3 hr compared to the zero time point,[1],not observed
same,growth and increase in ATP after 3 hr compared to the zero time point,[2],reduced but not abrogated

# — patent US7943314B2, “Methods of detecting viability-associated molecules” (ISEAO Technologies Limited, priority 2005, dated 2011)
